Test results: patent US10946074B2, “GLP-1 derivatives and uses thereof” (Novo Nordisk A/S, priority 2016, dated 2021)
pEC50, pIC50: −log10 of the molar value. Like-named read-outs stand apart in the source and are kept apart here.

Tests used:
human GLP-1 receptor [1] = molecular target: T1, human GLP-1 receptor (Homo sapiens, UniProt P43220); assay: In vitro potency, CRE luciferase reporter gene assay in BHK cells expressing the human GLP-1 receptor; assay type: cell-based; details: 3 h, 0% HSA, average of at least three replicates
T1 construct: expressed in transfected cells; host or cells: membranes of BHK cells (parent BHKTS13), clone FCW467-12A
Procedure: When assay incubation is completed the luciferase substrate (luciferin) is added and the enzyme converts luciferin to oxyluciferin to produce bioluminescence. The luminescence is measured as the readout for the assay.
The cells were cultured at 5% CO2 in cell culture medium. They were aliquoted and stored in liquid nitrogen. Before each assay an aliquot was taken up and washed twice in PBS before being suspended at the desired concentration in the assay specific buffer. For 96-well plates the suspension was made to give a final concentration of 5×10^3 cells/well.
Assay medium consisted of DMEM w/o phenol red, 10 mM Hepes and 1× Glutamax. The assay buffer consisted of 2% w/v ovalbumin and 0.2% v/v Pluronic F-68 in assay medium.
3) Cells were counted and adjusted to 5×10^3 cells/50 μl (1×10^5 cells/ml) in assay medium. A 50 μl aliquot of cells was transferred to each well in the assay plate.
4) Stocks of the test compounds and reference compounds were diluted to a concentration of 0.2 μM in assay buffer. […] Compounds were tested at the following final concentrations: 1×10^−7 M, 1×10^−8 M; 1×10^−9 M, 1×10^−10 M, 1×10^−11 M, 1×10^−12 M, 1×10^−13 M, and 1×10^−14 M. 6) The assay plate was incubated for 3 h in a 5% CO2 incubator at 37° C. […] 8) A 100 μl aliquot of steadylite plus reagent was added to each well of the assay plate. 9) Each assay plate was covered with aluminum foil to protect it from light and shaken for 30 min at room temperature. 10) Each assay plate was read in a BioTek Synergy 2 Multi-Mode Reader. Calculations and Results
The data from the BioTek Synergy 2 Multi-Mode Reader were transferred to GraphPad Prism software. The software performs a non-linear regression (log(agonist) vs. response (three parameters)).
A minimum of three replicates were measured for each sample. The reported EC50 values are averages of the measured values for each compound.

human GLP-1 receptor [2] = molecular target: T1, human GLP-1 receptor; assay: GLP-1 receptor binding, competitive binding assay with 125I-GLP-1 on isolated membranes (SPA)
Procedure: The receptor binding is reported as the concentration at which half of the labelled ligand is displaced from the receptor, the IC50 value.
Buffer 1 consisted of 20 mM Na-HEPES plus 10 mM EDTA and pH was adjusted to 7.4. Buffer 2 consisted of 20 mM Na-HEPES plus 0.1 mM EDTA and pH was adjusted to 7.4. Assay buffer consisted of 50 mM HEPES supplemented with 5 mM EGTA, 5 mM MgCl2, 0.005% w/v Tween 20 and pH was adjusted to 7.4. An 8% albumin stock consisted of HSA dissolved at 8% (w/v) in assay buffer. An 0.02% albumin stock consisted of HSA dissolved at 0.02% (w/v) in assay buffer.
To make a membrane preparation the cells were grown to approximately 80% confluence. The cells were washed twice in phosphate-buffered saline and harvested. The cells were pelleted using a brief centrifugation and the cell pellet was kept on ice. The cell pellet was homogenised with ULTRA-THURRAX™ dispersing instrument for 20-30 seconds in a suitable amount of buffer 1 (e.g., 10 ml). The homogenate was centrifuged for 15 minutes. The pellet was re-suspended (homogenised) in 10 ml buffer 2 and centrifuged. This step was repeated once more. The resulting pellet was re-suspended in buffer 2 and the protein concentration was determined. The membranes were aliquoted and stored at minus 80° C.
For the receptor binding assay in the presence of low HSA (0.005% (w/v)) 50 μl of the assay buffer was added to each well of an assay plate. Assay continued with step 3.
For the receptor binding assay in the presence of high HSA (2% (w/v)) 50 μl of the 8% (w/v) albumin stock was added to each well of an assay plate. Assay continued with step 3.
Cell membrane aliquots were thawed and diluted to their working concentration. Fifty μl were added to each well in the assay plate.
WGA SPA beads were suspended in assay buffer at 20 mg/ml. The suspension was diluted to 10 mg/ml in assay buffer just prior to addition to the assay plate. Fifty μl were added to each well in the assay plate.
A 25 μl aliquot was reserved for measuring total counts/well.
The assay plate was incubated for 2 h at 30° C.
The assay plate was centrifuged for 10 min.
The assay plate was read in a Packard TopCount NXT instrument.
Individual replicates were analysed using non-linear regression in GraphPad Prism. IC50 values were calculated by the software and reported in nM. A minimum of two replicates was measured for each sample. The reported values are averages of all of the measured values for each compound.

[3] = high HSA (2.0% (w/v) final assay concentration), read-out: GLP-1 receptor binding High HSA IC50
[4] = low HSA (max. 0.001% (w/v) final assay concentration), read-out: GLP-1 receptor binding Low HSA IC50

T1 sequence (P43220 24-463): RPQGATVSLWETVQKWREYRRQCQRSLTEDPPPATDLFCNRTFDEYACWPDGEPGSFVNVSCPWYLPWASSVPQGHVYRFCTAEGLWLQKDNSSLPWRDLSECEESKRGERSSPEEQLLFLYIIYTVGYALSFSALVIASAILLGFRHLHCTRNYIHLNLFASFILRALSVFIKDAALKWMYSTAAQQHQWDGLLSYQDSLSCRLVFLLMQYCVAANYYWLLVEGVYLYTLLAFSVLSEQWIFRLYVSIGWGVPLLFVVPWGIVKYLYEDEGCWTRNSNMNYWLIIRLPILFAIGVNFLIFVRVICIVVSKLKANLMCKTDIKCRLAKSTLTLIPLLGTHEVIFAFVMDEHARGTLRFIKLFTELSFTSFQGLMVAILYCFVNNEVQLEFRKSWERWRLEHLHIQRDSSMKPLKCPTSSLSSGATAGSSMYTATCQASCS

| pEC50 (human GLP-1 receptor [1]) | pIC50 (human GLP-1 receptor [2]; [3]) | pIC50 (human GLP-1 receptor [2]; [4]) | SMILES |
| --- | --- | --- | --- |
| 10.77 | 6.97 | 9.23 | CC[C@H](C)[C@H](NC(=O)[C@H](Cc1ccccc1)NC(=O)[C@H](CCC(=O)O)NC(=O)[C@H](CCCNC(=N)N)NC(=O)[C@H](C)NC(=O)[C@H](C)NC(=O)[C@H](CCC(N)=O)NC(=O)[C@H](CCC(=O)O)NC(=O)[C@H](CCC(=O)O)NC(=O)[C@H](CC(C)C)NC(=O)[C@H](Cc1ccc(O)cc1)NC(=O)[C@H](CO)NC(=O)[C@H](CO)NC(=O)[C@@H](NC(=O)[C@H](CC(=O)O)NC(=O)[C@H](CO)NC(=O)[C@@H](NC(=O)[C@H](Cc1ccccc1)NC(=O)[C@@H](NC(=O)CNC(=O)[C@H](CCC(=O)O)NC(=O)C(C)(C)NC(=O)[C@@H](N)Cc1c[nH]cn1)[C@@H](C)O)[C@@H](C)O)C(C)C)C(=O)N[C@@H](C)C(=O)N[C@@H](Cc1c[nH]c2ccccc12)C(=O)N[C@@H](CC(C)C)C(=O)N[C@H](C(=O)N[C@@H](CCCNC(=N)N)C(=O)NCC(=O)N[C@@H](CCCNC(=N)N)C(=O)N[C@@H](CCCCNC(=O)[C@H](CCCCNC(=O)COCCOCCNC(=O)COCCOCCNC(=O)COCCOCCNC(=O)COCCOCCNC(=O)COCCOCCNC(=O)COCCOCCNC(=O)CC[C@H](NC(=O)[C@H]1CC[C@H](CNC(=O)CCCCCCCCCCCCCCCCCCC(=O)O)CC1)C(=O)O)NC(=O)COCCOCCNC(=O)COCCOCCNC(=O)COCCOCCNC(=O)COCCOCCNC(=O)COCCOCCNC(=O)COCCOCCNC(=O)CC[C@H](NC(=O)[C@H]1CC[C@H](CNC(=O)CCCCCCCCCCCCCCCCCCC(=O)O)CC1)C(=O)O)C(=O)O)C(C)C [Comparative 10A] |
| 10.86 | 7.37 | 9.27 | CC[C@H](C)[C@H](NC(=O)[C@H](Cc1ccccc1)NC(=O)[C@H](CCC(=O)O)NC(=O)[C@H](CCCNC(=N)N)NC(=O)[C@H](C)NC(=O)[C@H](C)NC(=O)[C@H](CCC(N)=O)NC(=O)[C@H](CCC(=O)O)NC(=O)[C@H](CCC(=O)O)NC(=O)[C@H](CC(C)C)NC(=O)[C@H](Cc1ccc(O)cc1)NC(=O)[C@H](CO)NC(=O)[C@H](CO)NC(=O)[C@@H](NC(=O)[C@H](CC(=O)O)NC(=O)[C@H](CO)NC(=O)[C@@H](NC(=O)[C@H](Cc1ccccc1)NC(=O)[C@@H](NC(=O)CNC(=O)[C@H](CCC(=O)O)NC(=O)C(C)(C)NC(=O)[C@@H](N)Cc1c[nH]cn1)[C@@H](C)O)[C@@H](C)O)C(C)C)C(=O)N[C@@H](C)C(=O)N[C@@H](Cc1c[nH]c2ccccc12)C(=O)N[C@@H](CC(C)C)C(=O)N[C@H](C(=O)N[C@@H](CCCNC(=N)N)C(=O)NCC(=O)N[C@@H](CCCNC(=N)N)C(=O)N[C@@H](CCCCNC(=O)COCCOCCNC(=O)COCCOCCNC(=O)[C@H](CCCCNC(=O)COCCOCCNC(=O)COCCOCCNC(=O)COCCOCCNC(=O)COCCOCCNC(=O)CC[C@H](NC(=O)[C@H]1CC[C@H](CNC(=O)CCCCCCCCCCCCCCCCCCC(=O)O)CC1)C(=O)O)NC(=O)COCCOCCNC(=O)COCCOCCNC(=O)COCCOCCNC(=O)COCCOCCNC(=O)CC[C@H](NC(=O)[C@H]1CC[C@H](CNC(=O)CCCCCCCCCCCCCCCCCCC(=O)O)CC1)C(=O)O)C(=O)O)C(C)C [Comparative 12A] |

The next lines start with the compound.

| SMILES | pEC50 (human GLP-1 receptor [1]) | pIC50 (human GLP-1 receptor [2]; [3]) | pIC50 (human GLP-1 receptor [2]; [4]) |
| --- | --- | --- | --- |
| CC[C@H](C)[C@H](NC(=O)[C@H](Cc1ccccc1)NC(=O)[C@H](CCC(=O)O)NC(=O)[C@H](CCCNC(=N)N)NC(=O)[C@H](C)NC(=O)[C@H](C)NC(=O)[C@H](CCC(N)=O)NC(=O)[C@H](CCC(=O)O)NC(=O)[C@H](CCC(=O)O)NC(=O)[C@H](CC(C)C)NC(=O)[C@H](Cc1ccc(O)cc1)NC(=O)[C@H](CO)NC(=O)[C@H](CO)NC(=O)[C@@H](NC(=O)[C@H](CC(=O)O)NC(=O)[C@H](CO)NC(=O)[C@@H](NC(=O)[C@H](Cc1ccccc1)NC(=O)[C@@H](NC(=O)CNC(=O)[C@H](CCC(=O)O)NC(=O)C(C)(C)NC(=O)[C@@H](N)Cc1c[nH]cn1)[C@@H](C)O)[C@@H](C)O)C(C)C)C(=O)N[C@@H](C)C(=O)N[C@@H](Cc1c[nH]c2ccccc12)C(=O)N[C@@H](CC(C)C)C(=O)N[C@H](C(=O)N[C@@H](CCCNC(=N)N)C(=O)NCC(=O)N[C@@H](CCCCNC(=O)COCCOCCNC(=O)COCCOCCNC(=O)CC[C@H](NC(=O)CCCCCCCCCOc1cccc(C(=O)O)c1)C(=O)O)C(=O)N[C@@H](CCCCNC(=O)COCCOCCNC(=O)COCCOCCNC(=O)CC[C@H](NC(=O)CCCCCCCCCOc1cccc(C(=O)O)c1)C(=O)O)C(=O)O)C(C)C [Comparative 1A] | 11.09 | 6.94 | 9.50 |
| CC[C@H](C)[C@H](NC(=O)[C@H](Cc1ccccc1)NC(=O)[C@H](CCC(=O)O)NC(=O)[C@H](CCCNC(=N)N)NC(=O)[C@H](C)NC(=O)[C@H](C)NC(=O)[C@H](CCC(N)=O)NC(=O)[C@H](CCC(=O)O)NC(=O)[C@H](CCC(=O)O)NC(=O)[C@H](CC(C)C)NC(=O)[C@H](Cc1ccc(O)cc1)NC(=O)[C@H](CO)NC(=O)[C@H](CO)NC(=O)[C@@H](NC(=O)[C@H](CC(=O)O)NC(=O)[C@H](CO)NC(=O)[C@@H](NC(=O)[C@H](Cc1ccccc1)NC(=O)[C@@H](NC(=O)CNC(=O)[C@H](CCC(=O)O)NC(=O)C(C)(C)NC(=O)[C@@H](N)Cc1c[nH]cn1)[C@@H](C)O)[C@@H](C)O)C(C)C)C(=O)N[C@@H](C)C(=O)N[C@@H](Cc1c[nH]c2ccccc12)C(=O)N[C@@H](CC(C)C)C(=O)N[C@H](C(=O)N[C@@H](CCCNC(=N)N)C(=O)NCC(=O)N[C@@H](CCCCNC(=O)COCCOCCNC(=O)COCCOCCNC(=O)COCCOCCNC(=O)COCCOCCNC(=O)CC[C@H](NC(=O)CCCCCCCCCCCCC(=O)O)C(=O)O)C(=O)N[C@@H](CCCCNC(=O)COCCOCCNC(=O)COCCOCCNC(=O)COCCOCCNC(=O)COCCOCCNC(=O)CC[C@H](NC(=O)CCCCCCCCCCCCC(=O)O)C(=O)O)C(=O)O)C(C)C [Comparative 7A] | 11.59 | 7.50 | 9.13 |
| CC[C@H](C)[C@H](NC(=O)[C@H](Cc1ccccc1)NC(=O)[C@H](CCC(=O)O)NC(=O)[C@H](CCCNC(=N)N)NC(=O)[C@H](C)NC(=O)[C@H](C)NC(=O)[C@H](CCC(N)=O)NC(=O)[C@H](CCC(=O)O)NC(=O)[C@H](CCC(=O)O)NC(=O)[C@H](CC(C)C)NC(=O)[C@H](Cc1ccc(O)cc1)NC(=O)[C@H](CO)NC(=O)[C@H](CO)NC(=O)[C@@H](NC(=O)[C@H](CC(=O)O)NC(=O)[C@H](CO)NC(=O)[C@@H](NC(=O)[C@H](Cc1ccccc1)NC(=O)[C@@H](NC(=O)CNC(=O)[C@H](CCC(=O)O)NC(=O)C(C)(C)NC(=O)[C@@H](N)Cc1c[nH]cn1)[C@@H](C)O)[C@@H](C)O)C(C)C)C(=O)N[C@@H](C)C(=O)N[C@@H](Cc1c[nH]c2ccccc12)C(=O)N[C@@H](CC(C)C)C(=O)N[C@H](C(=O)N[C@@H](CCCNC(=N)N)C(=O)NCC(=O)N[C@@H](CCCNC(=N)N)C(=O)N[C@@H](CCCCNC(=O)COCCOCCNC(=O)COCCOCCNC(=O)CN(CCCNC(=O)COCCOCCNC(=O)COCCOCCNC(=O)COCCOCCNC(=O)COCCOCCNC(=O)CC[C@H](NC(=O)[C@H]1CC[C@H](CNC(=O)CCCCCCCCCCCCCCCCCCC(=O)O)CC1)C(=O)O)CCCNC(=O)COCCOCCNC(=O)COCCOCCNC(=O)COCCOCCNC(=O)COCCOCCNC(=O)CC[C@H](NC(=O)[C@H]1CC[C@H](CNC(=O)CCCCCCCCCCCCCCCCCCC(=O)O)CC1)C(=O)O)C(=O)O)C(C)C [Comparative 13A] | 10.83 | 7.45 | 9.42 |
